The values below come from patent US8710178B2, “Macrocyclic cysteine protease inhibitors and compositions thereof” (Lincoln University, priority 2006, dated 2014).

Data set [1] deals with lambs genetically predisposed to cataracts. Briefly: Cataract progression in lambs genetically predisposed to cataracts. As to conditions: for cataract progression in both eyes versus placebo-treated lambs: 1% ointment (25 mg) twice daily for three months, p=0.066 (compound 9), p=0.26 (compound 8); for cataract progression, treated right eye versus left eye: 1% ointment (25 mg) twice daily to right eye for three months, slit-lamp microscope.
Description: A flock of 63 lambs genetically predisposed to cataracts were split into three equal groups. […] A placebo ointment (25 mg) was applied twice daily to the right eye of the final group of 21 lambs for three months starting when they were three to four months old.
The progression of cataracts was determined by a veterinary ophthalmologist with a slit-lamp microscope.

For data set [2], the target named is T1, calpain II (m calpain) (Homo sapiens, UniProt P17655).
T1 sequence (P17655 1-700): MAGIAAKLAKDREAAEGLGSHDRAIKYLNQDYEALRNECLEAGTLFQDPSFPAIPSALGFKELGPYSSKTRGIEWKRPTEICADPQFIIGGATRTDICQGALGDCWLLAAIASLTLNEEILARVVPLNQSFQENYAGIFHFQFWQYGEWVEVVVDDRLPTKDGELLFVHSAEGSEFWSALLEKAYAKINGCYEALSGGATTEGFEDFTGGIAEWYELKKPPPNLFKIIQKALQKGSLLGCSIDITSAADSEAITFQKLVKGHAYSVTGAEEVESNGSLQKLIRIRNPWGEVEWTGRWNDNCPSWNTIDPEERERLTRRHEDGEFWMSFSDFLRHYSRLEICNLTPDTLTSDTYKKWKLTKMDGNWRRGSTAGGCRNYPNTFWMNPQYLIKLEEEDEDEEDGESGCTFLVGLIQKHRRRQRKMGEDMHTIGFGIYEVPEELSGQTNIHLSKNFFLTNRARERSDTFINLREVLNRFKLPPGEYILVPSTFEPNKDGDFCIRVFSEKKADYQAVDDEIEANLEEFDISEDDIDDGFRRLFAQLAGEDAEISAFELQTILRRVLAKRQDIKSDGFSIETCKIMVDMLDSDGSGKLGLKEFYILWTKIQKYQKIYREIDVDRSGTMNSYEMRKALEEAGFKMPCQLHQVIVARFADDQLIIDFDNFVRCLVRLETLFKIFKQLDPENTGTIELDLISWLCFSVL
T1 sequence (P04632 1-268 partner): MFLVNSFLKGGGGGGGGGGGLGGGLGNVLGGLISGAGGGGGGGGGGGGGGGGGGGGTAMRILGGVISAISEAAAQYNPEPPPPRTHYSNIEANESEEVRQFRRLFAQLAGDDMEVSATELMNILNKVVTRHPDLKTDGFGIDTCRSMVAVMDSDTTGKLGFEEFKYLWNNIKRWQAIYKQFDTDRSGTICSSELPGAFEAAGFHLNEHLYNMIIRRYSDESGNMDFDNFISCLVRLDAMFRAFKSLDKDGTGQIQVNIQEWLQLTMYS
Briefly: BODIPY-casein fluorescence-based enzyme assay, calpain II / m-calpain. The format is biochemical. As to conditions: BODIPY-casein substrate.
Description: (§1) The inhibitors were assayed against several enzymes using a BODIPY-casein substrate in the fluorescence-based assay procedure of V. F. Thompson, S. Saldana, J. Cong and D. E. Goll, Anal. Biochem. 2000, 279, 170.
A number of the compounds were assayed against m-calpain using a BODIPY-casein substrate in the fluorescence-based assay procedure of V. F. Thompson, S. Saldana, J. Cong and D. E. Goll, Anal. Biochem. 2000, 279, 170.

Data set [3] deals with T2, calpain I (μ calpain) (Homo sapiens, UniProt P07384).
T2 sequence (P07384 1-714): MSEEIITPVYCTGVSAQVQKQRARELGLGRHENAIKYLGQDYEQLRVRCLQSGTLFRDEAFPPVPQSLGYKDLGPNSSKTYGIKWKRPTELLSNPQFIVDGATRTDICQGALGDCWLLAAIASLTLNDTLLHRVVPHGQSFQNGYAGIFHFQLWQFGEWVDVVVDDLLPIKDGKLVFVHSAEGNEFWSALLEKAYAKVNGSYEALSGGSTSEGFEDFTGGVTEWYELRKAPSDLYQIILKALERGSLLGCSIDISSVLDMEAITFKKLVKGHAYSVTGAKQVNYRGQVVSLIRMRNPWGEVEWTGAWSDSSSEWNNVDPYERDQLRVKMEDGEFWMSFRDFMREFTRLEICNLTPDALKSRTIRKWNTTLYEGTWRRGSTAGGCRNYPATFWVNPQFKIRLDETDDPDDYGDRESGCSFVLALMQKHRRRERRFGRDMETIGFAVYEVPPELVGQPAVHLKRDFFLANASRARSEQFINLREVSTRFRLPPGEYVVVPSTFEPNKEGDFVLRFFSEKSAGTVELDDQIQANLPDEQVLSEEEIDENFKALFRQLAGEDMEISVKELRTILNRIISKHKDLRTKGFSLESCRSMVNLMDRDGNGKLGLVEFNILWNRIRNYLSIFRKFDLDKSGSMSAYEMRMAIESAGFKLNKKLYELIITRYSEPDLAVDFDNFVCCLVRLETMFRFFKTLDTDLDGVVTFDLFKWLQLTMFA
T2 sequence (P04632 1-268 partner): T1 sequence (P04632 1-268 partner)
Briefly: BODIPY-casein fluorescence-based enzyme assay, calpain I. Format: biochemical. As to conditions: BODIPY-casein substrate.

Data set [4] has as its target cathepsin B (Homo sapiens, UniProt P07858). The data set is described as follows: BODIPY-casein fluorescence-based enzyme assay, cathepsin B. The format is biochemical. As to conditions: BODIPY-casein substrate.
Data set [5] concerns the target α-chymotrypsin (Bos taurus, UniProt P00766). Briefly: BODIPY-casein fluorescence-based enzyme assay, α-chymotrypsin. Format: biochemical. As to conditions: BODIPY-casein substrate.
Data set [6] addresses T3, papain (Carica papaya, UniProt P00784).
T3 sequence (P00784 134-345): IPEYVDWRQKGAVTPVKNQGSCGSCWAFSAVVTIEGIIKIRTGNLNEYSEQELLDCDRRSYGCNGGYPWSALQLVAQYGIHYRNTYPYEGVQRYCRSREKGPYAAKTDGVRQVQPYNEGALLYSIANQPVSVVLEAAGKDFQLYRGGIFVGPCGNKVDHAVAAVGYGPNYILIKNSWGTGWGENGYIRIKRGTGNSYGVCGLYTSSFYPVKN
Briefly: BODIPY-casein fluorescence-based enzyme assay, papain. The format is biochemical. As to conditions: BODIPY-casein substrate.
Description: as §1

Data set [7] concerns eye of a lamb. Briefly: Eye irritation test of ointment in a lamb. The format is in vivo. As to conditions: ointment (50 mg) comprising 1% of compound, one eye of a lamb, three times in one day.
The mark [8] stands for this setting: Table 2, read-out: IC50 calpain II (m calpain).
The mark [9] stands for this setting: Table 3, read-out: IC50 against m-calpain.

pIC50: −log10 of the molar value. Where two headings read alike, the source gives them in different places.

Broadly, the pIC50 is the negative decadic logarithm of the IC50, by convention in mol/L.

In the case of `CC(C)C[C@@H]1NC(=O)[C@@H](NC(=O)OCc2ccccc2)Cc2ccc(cc2)OCCCC[C@@H](CO)NC1=O` [Compound 8], in data set [1], the “cataract progression in both eyes versus placebo-treated lambs” value was “significantly slower”. For the same molecule, the “cataract progression, treated right eye versus left eye” value in data set [1] is reported as “did not show significantly slower cataract progression”. The pIC50 in data set [2] (setting [8]) was 6.15; in data set [2] (setting [9]), 6.15; in data set [3], 5.76; in data set [4] it was 6.54; in data set [5], below 4.30; in data set [6], below 4.30.

`CC(C)C[C@@H]1NC(=O)[C@@H](NC(=O)OCc2ccccc2)Cc2ccc(cc2)OCCCC[C@@H](C=O)NC1=O` [Compound 9]: in data set [1], the “cataract progression in both eyes versus placebo-treated lambs” value is “significantly slower”. Besides, the “cataract progression, treated right eye versus left eye” value in data set [1] was “did not show significantly slower cataract progression”. Also, in data set [1] (over a 12 week period, flock of lambs genetically predisposed to cataracts), the “slowing of cortical cataract progression” value was determined as 30%. In addition, in data set [1] (over a 12 week period, lambs), the signs of toxicity result was “no signs of toxicity”. Moreover, the pIC50 was 7.52 in data set [2] (setting [8]); 7.52 in data set [2] (setting [9]); 6.65 in data set [3]; 7.15 in data set [4]; below 4.30 in data set [5]; below 4.30 in data set [6]. Also, in data set [7], the sign of irritation result was “No sign of irritation”.

For the molecule `CC(C)C[C@@H]1NC(=O)[C@@H](NC(=O)OCc2ccccc2)Cc2ccc(cc2)OCCCCC[C@@H](CO)NC1=O` [Compound 27], the pIC50 in data set [2] (setting [8]) is 5.96; in data set [2] (setting [9]), 5.87; in data set [3] it was 5.87; in data set [4], 5.96; in data set [5], below 4.30; in data set [6], below 4.30.

As for `CC(C)C[C@@H]1NC(=O)[C@@H](NC(=O)OCc2ccccc2)Cc2ccc(cc2)OCCCCC[C@@H](C=O)NC1=O` [Compound 28], the negative logarithm of the IC50 (pIC50) in data set [2] (setting [8]) was 6.74; in data set [2] (setting [9]), 6.74; in data set [3], 6.77; in data set [4] it was 6.11; in data set [5] it was below 4.30; in data set [6], below 4.30.

Regarding `CC(C)C[C@@H]1NC(=O)[C@@H](NC(=O)OCc2ccccc2)Cc2ccc(cc2)OCCCC[C@@H](CN=[N+]=[N-])NC1=O` [Compound 79, (7S-azidomethyl-10S-isobutyl-9,12-dixoxo-2-oxa-8,11-diazabicyclo-[13.2.2]nonadeca-1(18),15(19),16-trien-13S-yl)carbamic acid benzyl ester], the pIC50 in data set [2] (setting [8]), in data set [2] (setting [9]), in data set [3], in data set [4], in data set [5] and in data set [6] was below 4.30 throughout.

As to `CC(C)C[C@@H]1NC(=O)[C@@H](NC(=O)OCc2ccccc2)Cc2ccc(cc2)OCCCC[C@@H](C(O)C#N)NC1=O` (stereo partly drawn) [Compound 80, [7-(R,S)-(cyanohydroxymethyl)-10S-isobutyl-9,12-dioxo-2-oxa-8,11-diaza-bicyclo-[13.2.2]nonadeca-1(18),15(19),16-trien-13S-yl]carbamic acid benzyl ester], the pIC50 is 5.05 in data set [2] (setting [8]); 4.46 in data set [3]; 5.62 in data set [4]; below 4.30 in data set [5]; 4.92 in data set [6].
